Data reported in patent US20250222044A1, “LIMOSILACTOBACILLUS REUTERI GOLDGUT-LR99 AND APPLICATION THEREOF” (priority 2024, published 2025).
Where a SMILES comes first, the peptide text is derived from it.

Tested on: Limosilactobacillus reuteri GOLDGUT-LR99
Assay: Carbon source utilization and oxidation experiment (AN Biolog micro-pore plate)
Type: cell-based
Details: substrate utilization by the strain
Method: The AN Biolog micro-pore plate was used for measuring the utilization and oxidation conditions of different carbon sources of Limosilactobacillus reuteri GOLDGUT-LR99, the AN microplate used nutrients and biochemical reagents, and the method included the following steps: 1 mL of Limosilactobacillus reuteri GOLDGUT-LR99 bacterial liquid of the strain to be detected at the end of logarithmic growth was pipetted and centrifuged, then the supernatant was removed, the cells was washed three times with the seed liquid and suspended with 1 mL of the seed liquid, 50 μL of the suspension was taken and diluted in 10 mL of the seed liquid, the diluent was subpacked in a Biolog plate (100 μL/pore) after mixing uniformly, and the Biolog plate with the diluent was placed in 37° C. for anaerobic culture for 24 hours. After the culture was finished, OD590 and OD750 were detected by using microplate reader, the numerical values were recorded, and the utilization conditions of carbohydrate, organic acid and other substances of the Limosilactobacillus reuteri GOLDGUT-LR99 were calculated, wherein the calculation method was as follows: Y=OD590−OD750;

Compound	utilization effect (in words)
CC(O)C(=O)O (racemic) [D,L-Lactic acid]	effectively utilize
O=C(CO)[C@@H](O)[C@H](O)[C@H](O)CO [D-Fructose]	better utilization effect
O=C(O)[C@@H](O)[C@@H](O)[C@H](O)[C@@H](O)C(=O)O [D-Glucarate]	effectively utilize

Same assay, conditions: substrate utilization by the strain, 37° C. anaerobic culture for 24 hours

Compound	Utilization (Y=OD590−OD750)
3-Methyl-D-4-glucose	++ (when Y > 0.1, it is shown that the strain was able to effectively utilize this substance, marked as++)
OC[C@H]1O[C@@H](O[C@@H]2[C@@H](CO)OC(O)(CO)[C@H]2O)[C@H](O)[C@@H](O)[C@H]1O (mixture of isomers) [Lactulose]	− (when Y < 0.05, it is shown that the strain was not able to utilize this substance, marked as −)
CC(O)C(=O)O (racemic) [D,L-Lactic acid]	++ (when Y > 0.1, it is shown that the strain was able to effectively utilize this substance, marked as++)
O=P(O)(O)OCC(O)CO (racemic) [D,L-α-Glycerophosphate]	− (when Y < 0.05, it is shown that the strain was not able to utilize this substance, marked as −)
Nc1ncnc2c1ncn2[C@H]1C[C@H](O)[C@@H](CO)O1 [2′-Deoxyadenosine]	− (when Y < 0.05, it is shown that the strain was not able to utilize this substance, marked as −)
N#C[C@H](O[C@@H]1O[C@H](CO[C@@H]2O[C@H](CO)[C@@H](O)[C@H](O)[C@H]2O)[C@@H](O)[C@H](O)[C@H]1O)c1ccccc1 [Amygdalin]	− (when Y < 0.05, it is shown that the strain was not able to utilize this substance, marked as −)
OC[C@H]1O[C@@H](Oc2ccc(O)cc2)[C@H](O)[C@@H](O)[C@@H]1O [Arbutin]	− (when Y < 0.05, it is shown that the strain was not able to utilize this substance, marked as −)
OC[C@@H](O)C(O)[C@H](O)CO [D-Arabinitol]	− (when Y < 0.05, it is shown that the strain was not able to utilize this substance, marked as −)
OC[C@H]1O[C@@H](O[C@H]2[C@H](O)[C@@H](O)[C@H](O)O[C@@H]2CO)[C@H](O)[C@@H](O)[C@@H]1O [D-Cellobiose]	++ (when Y > 0.1, it is shown that the strain was able to effectively utilize this substance, marked as++)
O=C(CO)[C@@H](O)[C@H](O)[C@H](O)CO [D-Fructose]	++ (when Y > 0.1, it is shown that the strain was able to effectively utilize this substance, marked as++)
O=C[C@H](O)[C@@H](O)[C@@H](O)[C@H](O)CO [D-Galactose]	++ (when Y > 0.1, it is shown that the strain was able to effectively utilize this substance, marked as++)
O=C[C@H](O)[C@@H](O)[C@@H](O)[C@H](O)C(=O)O [D-Galacturonic acid]	++ (when Y > 0.1, it is shown that the strain was able to effectively utilize this substance, marked as++)
O=C(O)[C@@H](O)[C@@H](O)[C@H](O)[C@@H](O)C(=O)O [D-Glucarate]	++ (when Y > 0.1, it is shown that the strain was able to effectively utilize this substance, marked as++)
O=C1O[C@H](CO)[C@@H](O)[C@H](O)[C@H]1O [D-Gluconolactone]	++ (when Y > 0.1, it is shown that the strain was able to effectively utilize this substance, marked as++)
O=C(O)[C@H]1OC(O)[C@H](O)[C@@H](O)[C@@H]1O (stereo partly drawn) [D-Glucoronate]	++ (when Y > 0.1, it is shown that the strain was able to effectively utilize this substance, marked as++)
O=C(O)C[C@@H](O)C(=O)O [D-Malic acid]	− (when Y < 0.05, it is shown that the strain was not able to utilize this substance, marked as −)
OC[C@@H](O)[C@@H](O)[C@H](O)[C@H](O)CO [D-Mannitol]	+ (when 0.1 > Y > 0.05, it is shown that the strain was able to better utilize this substance, marked as +)
OC[C@H]1O[C@@](CO)(O[C@H]2O[C@H](CO)[C@@H](O)[C@H](O)[C@H]2O)[C@@H](O[C@H]2O[C@H](CO)[C@@H](O)[C@H](O)[C@H]2O)[C@@H]1O [D-Melezitose]	− (when Y < 0.05, it is shown that the strain was not able to utilize this substance, marked as −)

Compound	Utilization (Y=OD590−OD750)
OC[C@@H](O)[C@@H](O)[C@H](O)[C@@H](O)CO [D-Sorbitol]	++ (when Y > 0.1, it is shown that the strain was able to effectively utilize this substance, marked as++)
OC[C@H]1O[C@H](O[C@H]2O[C@H](CO)[C@@H](O)[C@H](O)[C@H]2O)[C@H](O)[C@@H](O)[C@@H]1O [D-Trehalose]	− (when Y < 0.05, it is shown that the strain was not able to utilize this substance, marked as −)
CC(C)[C@@H](C)/C=C/[C@@H](C)[C@H]1CC[C@H]2C3=CC=C4C[C@@H](O)CC[C@]4(C)[C@H]3CC[C@]12C [Ergosterol]	++ (when Y > 0.1, it is shown that the strain was able to effectively utilize this substance, marked as++)
CC(=O)O [Ethanoic acid]	− (when Y < 0.05, it is shown that the strain was not able to utilize this substance, marked as −)
O=CO [Formic acid]	− (when Y < 0.05, it is shown that the strain was not able to utilize this substance, marked as −)
O=C(O)/C=C/C(=O)O [Fumaric acid]	− (when Y < 0.05, it is shown that the strain was not able to utilize this substance, marked as −)
O=P(O)(O)O[C@H]1O[C@H](CO)[C@@H](O)[C@H](O)[C@H]1O [Glucose-1-phosphate]	+ (when 0.1 > Y > 0.05, it is shown that the strain was able to better utilize this substance, marked as +)
O=C[C@H](O)[C@@H](O)[C@H](O)[C@H](O)COP(=O)(O)O [Glucose-6-phosphate]	++ (when Y > 0.1, it is shown that the strain was able to effectively utilize this substance, marked as++)
OCC(O)CO [Glycerol]	− (when Y < 0.05, it is shown that the strain was not able to utilize this substance, marked as −)
NCC(=O)N[C@@H](CCC(N)=O)C(=O)O [Glycyl-L-glutamine] (H-Gly-Gln-OH)	− (when Y < 0.05, it is shown that the strain was not able to utilize this substance, marked as −)
CSCC[C@H](NC(=O)CN)C(=O)O [Glycyl-L-methionine]	− (when Y < 0.05, it is shown that the strain was not able to utilize this substance, marked as −)
NCC(=O)N1CCC[C@H]1C(=O)O [Glycylprolline] (H-Gly-Pro-OH)	− (when Y < 0.05, it is shown that the strain was not able to utilize this substance, marked as −)
O=CC(=O)O [Glyoxylic acid]	+ (when 0.1 > Y > 0.05, it is shown that the strain was able to better utilize this substance, marked as +)
OC[C@H]1O[C@@H](n2cnc3c(O)ncnc32)[C@H](O)[C@@H]1O [Inosine]	− (when Y < 0.05, it is shown that the strain was not able to utilize this substance, marked as −)
C=C(CC(=O)O)C(=O)O [Itaconic acid]	− (when Y < 0.05, it is shown that the strain was not able to utilize this substance, marked as −)
C[C@H](N)C(=O)O [L-Alanine]	− (when Y < 0.05, it is shown that the strain was not able to utilize this substance, marked as −)
C[C@H](N)C(N)=O [L-Alanineamide]	++ (when Y > 0.1, it is shown that the strain was able to effectively utilize this substance, marked as++)
